# Experimental data published in PMC6242839 (Nature Communications, 2018).
# Like-named read-outs stand apart in the source and are kept apart here.
# Experiments:
# [1] = tested on: Bacillus cereus ATCC 14579; conditions: cited from earlier work
# [2] = tested on: B. anthracis ovine strain (animal isolate); experiment: microbe, parasite or virus in culture; format: cell-based; conditions: Bacillus anthracis; 16 h at 37 °C; read-out: MIC B. anthracis Ovine
# [3] = tested on: B. cereus (ATCC 10876); experiment: microbe, parasite or virus in culture; format: cell-based; conditions: Bacillus cereus, ATCC10876; 16 h at 37 °C; read-out: MIC B. cereus
# [4] = tested on: E. faecalis (ATCC 29212); experiment: microbe, parasite or virus in culture; format: cell-based; conditions: Enterococcus faecalis, ATCC29212; 16 h at 37 °C; read-out: MIC E. faecalis
# [5] = tested on: B. anthracis pathogenic strain (human isolate); experiment: microbe, parasite or virus in culture; format: cell-based; conditions: Bacillus anthracis; 16 h at 37 °C; read-out: MIC B. anthracis Pathogenic
# [6] = tested on: B. anthracis Sterne strain; experiment: microbe, parasite or virus in culture; format: cell-based; conditions: Bacillus anthracis; 16 h at 37 °C; read-out: MIC B. anthracis Sterne
# [7] = tested on: B. cereus ATCC 14579 strains resistant to known antibiotics; experiment: microbe, parasite or virus in culture; format: cell-based, Bacillus cereus
# [8] = in vitro; conditions: human
# [9] = tested on: B. cereus ATCC 14579; experiment: microbe, parasite or virus in culture; format: cell-based, Bacillus cereus; conditions: Bacillus cereus, ATCC14579
# [10] = POPE LUVs, compound 50 µM
# [11] = POPC LUVs, compound 50 µM
# [12] = tested on: E. coli K12 spheroplasts; experiment: microbe, parasite or virus in culture; format: cell-based, Escherichia coli
# [13] = tested on: S. aureus ATCC 29213 protoplasts; experiment: microbe, parasite or virus in culture; format: cell-based, Staphylococcus aureus
molecule,measurement,setting,value
CC1(C)S[C@@H]2[C@H](NC(=O)[C@H](N)c3ccccc3)C(=O)N2[C@H]1C(=O)O [Ampicillin],MIC,[1],0.00025 mg/mL
"O=C(N[C@H](CO)[C@H](O)c1ccc([N+](=O)[O-])cc1)C(Cl)Cl [Chloramphenicol, reference compound]",MIC,[1],0.0025 mg/mL
same,MIC,[2],25 µM
same,MIC,[3],19 µM
same,MIC,[4],19 µM
same,MIC,[5],25 µM
same,MIC,[6],25 µM
O=C(O)c1cn(C2CC2)c2cc(N3CCNCC3)c(F)cc2c1=O [Ciprofloxacin],MIC,[1],0.00032 mg/mL
same,MIC of the antibiotic,[7],0.05 mg/mL
CCCCCCCCCCCCS[C@H]1C[C@H](O)[C@@H](O)[C@H](C)O1 [Compound 2],IC50 at 24 h,[8],> 50 µM
same,IC50 at 48 h,[8],> 50 µM
same,MIC,[2],48 µM
same,MIC,[3],48 µM
same,MIC,[4],> 48 µM
same,MIC,[5],48 µM
same,MIC,[6],24 µM
CCCCCCCCCCCC[C@H]1C[C@H](O)[C@@H](O)[C@H](C)O1 [Compound 3],IC50 at 24 h,[8],> 100 µM
same,IC50 at 48 h,[8],100 µM
same,MIC,[2],54 µM
same,MIC,[3],27 µM
same,MIC,[4],> 54 µM
same,MIC,[5],54 µM
same,MIC,[6],27 µM
CCCCCCCCCCCCO[C@H]1C[C@H](O)[C@H](O)[C@H](C)O1 [Compound 4],IC50 at 24 h,[8],100 µM
same,IC50 at 48 h,[8],50 µM
same,MIC,[2],25 µM
same,MIC,[3],25 µM
same,MIC,[4],> 50 µM
same,MIC,[5],25 µM
same,MIC,[6],25 µM
CCCCCCCCCCCCO[C@@H]1C[C@H](O)[C@@H](O)[C@H](C)O1 [Compound 5],MIC,[2],101 µM
same,MIC,[3],202 µM
same,MIC,[4],101 µM
same,MIC,[5],101 µM
same,MIC,[6],202 µM
CCCCCCCCCCCCO[C@@H]1O[C@@H](C)[C@H](O)[C@@H](O)[C@H]1O [Compound 6],MBC,[9],0.032 mg/mL
same,MIC,[9],0.032 mg/mL
same,MIC,[2],48 µM
same,MIC,[4],48 µM
same,MIC,[5],24 µM
same,MIC,[6],24 µM
CCCCCCCCCCCCO[C@H]1C[C@H](O)[C@@H](O)CO1 [Compound 7],MBC,[9],0.016 mg/mL
same,MIC,[9],0.016 mg/mL
same,IC50 at 24 h,[8],> 100 µM
same,IC50 at 48 h,[8],100 µM
same,MIC,[2],52 µM
same,MIC,[4],52 µM
same,MIC,[5],52 µM
same,MIC,[6],26 µM
CCCCCCCCCCCCO[C@@H]1C[C@H](O)[C@@H](O)CO1 [Compound 8],MIC,[2],52 µM
same,MIC,[4],52 µM
same,MIC,[5],26 µM
same,MIC,[6],26 µM
CCCCCCCCCCCCO[C@@H]1C[C@@H](O)[C@H](O)[C@@H](C)O1 [Compound 9],IC50 at 24 h,[8],100 µM
same,IC50 at 48 h,[8],50 µM
same,MIC,[2],50 µM
same,MIC,[3],25 µM
same,MIC,[4],50 µM
same,MIC,[5],50 µM
same,MIC,[6],50 µM
"CCCCCCCCCCCC[C@@H]1C[C@@H](O)[C@H](O)[C@@H](C)O1 [Compound 10, 1-(2,6-Dideoxy-α-D-arabino-hexopyranosyl)dodecane]",MBC,[9],0.032 mg/mL
same,MIC,[9],0.032 mg/mL
same,IC50 at 24 h,[8],> 100 µM
same,IC50 at 48 h,[8],> 100 µM
same,MIC,[2],27 µM
same,MIC,[3],27 µM
same,MIC,[4],> 54 µM
same,MIC,[5],27 µM
same,MIC,[6],27 µM
"CCCCCCCCCCCCO[C@H]1O[C@H](C)C[C@H](O)[C@H]1O [Compound 11, dodecyl 4,6-dideoxy-α-D-xylo-hexopyranoside]",IC50 at 48 h,[8],50 µM
same,MIC,[2],12.6 µM
same,MIC,[3],12.6 µM
same,MIC,[4],12.6 µM
same,MIC,[5],12.6 µM
same,MIC,[6],12.6 µM
CCCCCCCCCCCCO[C@@H]1O[C@H](C)C[C@H](O)[C@H]1O [Compound 12],IC50 at 48 h,[8],50 µM
same,MIC,[2],> 405 µM
same,MIC,[3],> 405 µM
same,MIC,[4],> 405 µM
same,MIC,[5],> 405 µM
same,MIC,[6],> 405 µM
CCCCCCCCCCCCO[C@@H]1C[C@@H](O)[C@H](O)[C@@H](CO)O1 [Compound 13],MBC,[9],0.128 mg/mL
same,MIC,[9],0.128 mg/mL
same,IC50 at 24 h,[8],100 µM
same,IC50 at 48 h,[8],> 50 µM
same,"time of leakage, τL",[10],about 326 min
same,leakage of encapsulated carboxyfluorescein,[10]; course of the experiment (14 h),~ 10%
same,MIC,[2],12 µM
same,MIC,[3],386 µM
same,MIC,[4],12 µM
same,MIC,[5],12 µM
same,"time of leakage, τL",[11],~256 min
same,MIC,[6],386 µM
CCCCCCCCCCCC[C@@H]1C[C@@H](O)[C@H](O)[C@@H](CO)O1 [Compound 14],MIC,[2],51 µM
same,MIC,[3],51 µM
same,MIC,[4],51 µM
same,MIC,[5],51 µM
same,MIC,[6],104 µM
CCCCCCCCCCCCO[C@H]1O[C@H](CO)C[C@H](O)[C@H]1O [Compound 15],MIC,[2],51 µM
same,MIC,[3],51 µM
same,MIC,[4],51 µM
same,MIC,[5],51 µM
same,MIC,[6],51 µM
CCCCCCCCCCCCO[C@H]1O[C@H](C)[C@@H](O)[C@H](O)[C@@H]1O [Compound 16],MIC,[2],> 48 µM
same,MIC,[3],48 µM
same,MIC,[4],> 48 µM
same,MIC,[5],24 µM
same,MIC,[6],24 µM
CCCCCCCCCCCCO[C@@H]1C[C@@H](O)[C@H](O)CO1 [Compound 17],MBC,[9],0.016 mg/mL
same,MIC,[9],0.016 mg/mL
same,IC50 at 24 h,[8],> 100 µM
same,IC50 at 48 h,[8],> 100 µM
same,MIC,[2],52 µM
same,MIC,[3],52 µM
same,MIC,[4],> 52 µM
same,MIC,[5],52 µM
same,MIC,[6],26 µM
CCCCCCCCCCCCO[C@H]1C[C@@H](O)[C@H](O)CO1 [Compound 18],IC50 at 24 h,[8],> 100 µM
same,IC50 at 48 h,[8],> 50 µM
same,MIC,[2],52 µM
same,MIC,[3],52 µM
same,MIC,[4],52 µM
same,MIC,[5],26 µM
same,MIC,[6],26 µM
CCCCCCCCCCCCS[C@@H]1C[C@@H](O)[C@H](O)CO1 [Compound 19],MIC,[2],50 µM
same,MIC,[3],25 µM
same,MIC,[4],50 µM
same,MIC,[5],25 µM
same,MIC,[6],50 µM
CCCCCCCCCCCCS[C@H]1C[C@@H](O)[C@H](O)CO1 [Compound 20],MBC,[9],0.032 mg/mL
same,MIC,[9],0.032 mg/mL
same,MIC,[2],50 µM
same,MIC,[3],50 µM
same,MIC,[4],> 50 µM
same,MIC,[5],50 µM
same,MIC,[6],25 µM
"CCCCCCCCCCCC[C@@H]1C[C@@H](O)[C@H](O)CO1 [Compound 21, 1-(2-Deoxy-α-D-threo-pentopyranosyl)dodecane]",IC50 at 24 h,[8],> 100 µM
same,IC50 at 48 h,[8],100 µM
same,MIC,[2],28 µM
same,MIC,[3],28 µM
same,MIC,[4],56 µM
same,MIC,[5],28 µM
same,MIC,[6],28 µM
CC[C@H]1OC(=O)[C@H](C)[C@@H](O[C@H]2C[C@@](C)(OC)[C@@H](O)[C@H](C)O2)[C@H](C)[C@@H](O[C@@H]2O[C@H](C)C[C@H](N(C)C)[C@H]2O)[C@](C)(O)C[C@@H](C)C(=O)[C@H](C)[C@@H](O)[C@]1(C)O [Erythromycin],MIC,[1],0.008 mg/mL
same,MIC of the antibiotic,[7],0.02 mg/mL
CNC(C)C1CCC(N)C(OC2C(N)CC(N)C(OC3OCC(C)(O)C(NC)C3O)C2O)O1 (stereo not drawn) [Gentamicin],MIC,[1],0.004 mg/mL
NC[C@H]1O[C@H](O[C@H]2[C@H](O)[C@@H](O[C@H]3O[C@H](CO)[C@@H](O)[C@H](N)[C@H]3O)[C@H](N)C[C@@H]2N)[C@H](O)[C@@H](O)[C@@H]1O [Kanamycin],MIC,[1],0.015 mg/mL
CCn1cc(C(=O)O)c(=O)c2cc(F)c(N3CCNCC3)cc21 [Norfloxacin],MIC,[1],0.00125 mg/mL
CO[C@H]1/C=C/O[C@@]2(C)Oc3c(C)c(O)c4c(O)c(c(/C=N/N5CCN(C)CC5)c(O)c4c3C2=O)NC(=O)/C(C)=C\C=C\[C@H](C)[C@H](O)[C@@H](C)[C@@H](O)[C@@H](C)[C@H](OC(C)=O)[C@@H]1C [Rifampicin],MIC,[1],0.0005 mg/mL
CN(C)[C@@H]1C(O)=C(C(N)=O)C(=O)[C@@]2(O)C(O)=C3C(=O)c4c(O)cccc4[C@@](C)(O)[C@H]3C[C@@H]12 [Tetracycline],MIC,[1],0.0025 mg/mL
same,MIC of the antibiotic,[7],0.05 mg/mL
CN[C@H](CC(C)C)C(=O)N[C@H]1C(=O)N[C@@H](CC(N)=O)C(=O)N[C@H]2C(=O)N[C@H]3C(=O)N[C@H](C(=O)N[C@H](C(=O)O)c4cc(O)cc(O)c4-c4cc3ccc4O)[C@H](O)c3ccc(c(Cl)c3)Oc3cc2cc(c3O[C@@H]2O[C@H](CO)[C@@H](O)[C@H](O)[C@H]2O[C@H]2C[C@](C)(N)[C@H](O)[C@H](C)O2)Oc2ccc(cc2Cl)[C@H]1O [Vancomycin],MIC,[1],0.00018 mg/mL
same,MIC of the antibiotic,[7],0.005 mg/mL
Colistin,MIC,[1],> 5 mg/mL
Daptomycin,MIC,[1],0.003125 mg/mL
Penicillin,MIC of the antibiotic,[7],0.02 mg/mL
Polymyxin B [reference compound],MIC,[12],> 1000 mg/mL
same,MIC,[1],0.781 mg/mL
same,MIC,[13],> 1000 mg/mL
